This test deals with T1, MCR-1 (Homo sapiens, UniProt Q01726).
T1 construct: expressed in transfected cells; host or cells: HEK 293
The test is described as follows: Melanocortin receptor binding assay, competition with 125I-HP 467, HEK 293 cells expressing hMCR-1. The note with it: for % Disp. MC-1 10 μM: displacement of 125I-HP 467 at 10 μM isoquinoline compound; for IC50: read-out: MC-1 IC50; for % Disp. of 125I-HP 467 (first of duplicate) / % Disp. of 125I-HP 467 (second of duplicate): 10 μM isoquinoline compound; for % Disp. of 125I-HP 467 (first of duplicate): HEK 293 cells expressing MCR-1, duplicate 1; for % Disp. of 125I-HP 467 (second of duplicate): HEK 293 cells expressing MCR-1, duplicate 2. A digest of the protocol:
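Test compounds compete on intact HEK 293 cells carrying hMCR-1 (2×10^4 per tube) or hMCR-4 (4×10^3 per tube), suspended in PBS, 10% calf serum, 1 mM CaCl2.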
A general note: In a radioligand displacement assay an active substance lowers the binding of a labelled ligand.

[1] abbreviates: competition with 125I-HP 467, HEK 293 cells expressing MCR-1.
The mark [2] stands for this setting: inhibition of binding of 125I-HP 467, HEK 293 cells expressing MCR-1.

Where two headings read alike, the source gives them in different places.

T1 sequence (Q01726 whole entry): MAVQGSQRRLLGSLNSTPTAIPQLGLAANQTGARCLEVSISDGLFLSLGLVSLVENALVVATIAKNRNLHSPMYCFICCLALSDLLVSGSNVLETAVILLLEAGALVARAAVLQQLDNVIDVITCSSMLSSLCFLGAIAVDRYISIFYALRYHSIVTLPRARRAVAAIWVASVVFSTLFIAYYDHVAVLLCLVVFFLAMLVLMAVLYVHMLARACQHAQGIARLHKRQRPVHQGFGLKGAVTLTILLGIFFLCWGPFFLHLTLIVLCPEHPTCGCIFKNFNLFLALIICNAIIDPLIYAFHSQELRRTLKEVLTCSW

With `NCCN1Cc2ccccc2C(CNC2CCCCC2)C1c1cccc(F)c1F` (centres unmarked) [TRG 2405-9], the “% Disp. MC-1 10 μM” value stood at 36.4% (first of duplicate) and 33.4% (second of duplicate). By IC50 is commonly meant the concentration at which inhibition is half-maximal. As for `COCCNC(CN)CCCCN1Cc2ccccc2C(CN)C1c1ccc(-c2ccccc2)cc1` (centres unmarked) [TRG 2411-32], the IC50 under setting [1] is 550 nM.

For `NCCN1Cc2ccccc2C(CNC2CCCCC2)C1c1cccc2ccccc12` (centres unmarked) [TRG 2405-5], the “% Disp. MC-1 10 μM” value is 53.6% (first of duplicate) and 53.6% (second of duplicate).

On to `CNC(CN)CN1Cc2ccccc2C(CNC2CCCCC2)C1c1ccco1` (centres unmarked) [TRG 2405-107], for which the “% Disp. MC-1 10 μM” value by setting is: (first of duplicate) 43.1%; (second of duplicate) 52.1%. The like results for `NCCN1Cc2ccccc2C(CNC2CCCCC2)C1c1ncc[nH]1` (centres unmarked) [TRG 2405-18] were, in that order, 35.9% and 34.7%. In the case of `CCCCNC(CN)CCCN1Cc2ccccc2C(CNCCc2ccccc2)C1c1ccc(-c2ccccc2)cc1` (centres unmarked) [TRG 2411-124], the IC50 under setting [1] was determined as 1540 nM.

In the case of `NCC(CCCN1Cc2ccccc2C(CNCCc2ccccc2)C1c1ccc(-c2ccccc2)cc1)NCCO` (centres unmarked) [TRG 2411-120], the IC50 under setting [1] is 1700 nM. On the same count and under the same terms, under `CCCCNc1ccc(C2C(CN)c3ccccc3CN2CCCCC(CN)NCCc2ccc(OC)cc2)cc1` (centres unmarked) [TRG 2411-106] stands 370 nM. With `CCCCCc1ccc(C2C(CNCCc3ccccc3)c3ccccc3CN2CCCC(CN)NCCc2ccccc2)cc1` (centres unmarked) [TRG 2412-29], the IC50 under setting [2] stood at 500 nM. For the compound `CNC(CN)CCCCN1Cc2ccccc2C(CNC2CCCCC2)C1c1cccc(F)c1F` (centres unmarked) [TRG 2405-189], the “% Disp. of 125I-HP 467 (first of duplicate)” value was determined as 45% and the “% Disp. of 125I-HP 467 (second of duplicate)” value was determined as 54.8%.

As for `CNC(CN)CCCCN1Cc2ccccc2C(CNC2CCCCC2)C1c1cccc(Oc2ccc(OC)cc2)c1` (centres unmarked) [TRG 2405-214], the “% Disp. of 125I-HP 467 (first of duplicate)” value was determined as 87.5% and the “% Disp. of 125I-HP 467 (second of duplicate)” value turned out to be 84.9%.

As to `CNC(CN)CCCCN1Cc2ccccc2C(CNC2CCCCC2)C1c1ccccc1O` (mixture of isomers) [TRG 2405-182], the “% Disp. of 125I-HP 467 (first of duplicate)” value amounted to 37.5% and the “% Disp. of 125I-HP 467 (second of duplicate)” value was found to be 44.4%. Take `CNC(CN)CCCCN1Cc2ccccc2C(CNC2CCCCC2)C1c1ccco1` (centres unmarked) [TRG 2405-197]: the “% Disp. of 125I-HP 467 (first of duplicate)” value was 41.9% and the “% Disp. of 125I-HP 467 (second of duplicate)” value worked out at 41.3%. As to `NCCN1Cc2ccccc2C(CNC2CCCCC2)C1c1ccc2c(c1)OCCO2` (centres unmarked) [TRG 2405-3], the “% Disp. MC-1 10 μM” value is, setting by setting: (first of duplicate) 46.8%; (second of duplicate) 44.2%. For `CNC(C)CNC(CN)CCCCN1Cc2ccccc2C(CNC2CCCCC2)C1c1ccc(-c2ccccc2)cc1` (mixture of isomers) [TRG 2411-15], under setting [1], the 50% inhibitory concentration (IC50) was 730 nM.

Take `CNC(CN)CCCCN1Cc2ccccc2C(CNC2CCCCC2)C1c1ccccc1OC` (centres unmarked) [TRG 2405-199]: the “% Disp. of 125I-HP 467 (first of duplicate)” value worked out at 71.5% and the “% Disp. of 125I-HP 467 (second of duplicate)” value was found to be 71.4%. Take `CCCCNc1ccc(C2C(CN)c3ccccc3CN2CCCCC(CN)NCc2ccc(Cl)cc2)cc1` (mixture of isomers) [TRG 2411-108]: under setting [1], the IC50 came to 160 nM.

Regarding `CNC(CN)CN1Cc2ccccc2C(CNC2CCCCC2)C1c1ccc[nH]1` (centres unmarked) [TRG 2405-175], the “% Disp. of 125I-HP 467 (first of duplicate)” value is given as 68.5% and the “% Disp. of 125I-HP 467 (second of duplicate)” value turned out to be 68.8%. For `CNC(CN)CCCCN1Cc2ccccc2C(CNC2CCCCC2)C1c1cccc(Oc2ccc(Cl)c(Cl)c2)c1` (mixture of isomers) [TRG 2405-213], in that order: 80% and 78.1%.

Regarding `CNC(CN)CN1Cc2ccccc2C(CNC2CCCCC2)C1c1ccnc2ccccc12` (centres unmarked) [TRG 2405-165], the “% Disp. MC-1 10 μM” value (first of duplicate) stood at 37.3% and the “% Disp. MC-1 10 μM” value (second of duplicate) worked out at 34.6%. Turning to `CNCCNC(CN)CCCCN1Cc2ccccc2C(CN)C1c1ccc(-c2ccccc2)cc1` (centres unmarked) [TRG 2413-2], the IC50 under setting [2] came to 540 nM.

On to `NCC(CCCCN1Cc2ccccc2C(CN)C1c1ccc(-c2ccccc2)cc1)NCc1ccccc1` (mixture of isomers) [TRG 2411-35], for which, under setting [1], the IC50 was 510 nM.

Source of the values: patent US6608082B1, “Treatment of erectile dysfunction using isoquinoline compound melanocortin receptor ligands” (Lion Bioscience AG, priority 1998, dated 2003).
